According to patent publication US9777004B2, “Amino-substituted imidazopyridazines” (Bayer Intellectual Property GmbH, priority 2012, dated 2017):

Columns and labels:
[1] = target: T1, human full-length MKNK1 (Homo sapiens (Human), UniProt Q9BUB5, T344D); test: MKNK1 kinase assay (TR-FRET); format: biochemical; details: 10 μM ATP, 15 min preincubation
Method: MKNK1-inhibitory activity of compounds of the present invention was quantified employing the MKNK1 TR-FRET assay as described in the following paragraphs.
As substrate for the kinase reaction the biotinylated peptide biotin-Ahx-[…] (C-terminus in amide form) was used which can be purchased e.g. form the company Biosyntan (Berlin-Buch, Germany).
(§1) For the assay 50 nL of a 100fold concentrated solution of the test compound in DMSO was pipetted into a black low volume 384well microtiter plate (Greiner Bio-One, Frickenhausen, Germany), 2 μL of a solution of MKNK1 in aqueous assay buffer [50 mM HEPES pH 7.5, 5 mM magnesium chloride, 1.0 mM dithiothreitol, 0.005% (v/v) Nonidet-P40 (Sigma)] was added and the mixture was incubated for 15 min at 22° C. to allow pre-binding of the test compounds to the enzyme before the start of the kinase reaction. Then the kinase reaction was started by the addition of 3 μL of a solution of adenosine-tri-phosphate (ATP, 16.7 μM=>final conc. in the 5 μL assay volume is 10 μM) and substrate (0.1 μM=>final conc. in the 5 μL assay volume is 0.06 μM) in assay buffer and the resulting mixture was incubated for a reaction time of 45 min at 22° C. The concentration of MKNK1 was adjusted depending of the activity of the enzyme lot and was chosen appropriate to have the assay in the linear range, typical concentrations were in the range of 0.05 μg/mL. The reaction was stopped by the addition of 5 μL of a solution of TR-FRET detection reagents (5 nM streptavidine-XL665 [Cisbio Bioassays, Codolet, France] and 1 nM anti-ribosomal protein S6 (pSer236)-antibody from Invitrogen [#44921G] and 1 nM LANCE EU-W1024 labeled ProteinG [Perkin-Elmer, product no. AD0071]) in an aqueous EDTA-solution (100 mM EDTA, 0.1% (w/v) bovine serum albumin in 50 mM HEPES pH 7.5).
(§2) The resulting mixture was incubated for 1 h at 22° C. to allow the formation of complex between the phosphorylated biotinylated peptide and the detection reagents. Subsequently the amount of phosphorylated substrate was evaluated by measurement of the resonance energy transfer from the Eu-chelate to the streptavidine-XL. Therefore, the fluorescence emissions at 620 nm and 665 nm after excitation at 350 nm were measured in a TR-FRET reader, e.g. a Rubystar (BMG Labtechnologies, Offenburg, Germany) or a Viewlux (Perkin-Elmer). The ratio of the emissions at 665 nm and at 622 nm was taken as the measure for the amount of phosphorylated substrate.

[2] = target: T1, human full-length MKNK1; test: MKNK1 kinase high ATP assay (TR-FRET); format: biochemical; details: 2 mM ATP, 15 min preincubation
Method: MKNK1 Kinase High ATP Assay
MKNK1-inhibitory activity at high ATP of compounds of the present invention after their preincubation with MKNK1 was quantified employing the TR-FRET-based MKNK1 high ATP assay as described in the following paragraphs.
As substrate for the kinase reaction the biotinylated peptide biotin-Ahx-[…] (C-terminus in amide form) was used, which can be purchased e.g. from the company Biosyntan (Berlin-Buch, Germany).
as §1, with “3.3 mM=>final” for “16.7 μM=>final”, “2 mM)” for “10 μM)”, “30” for “45”, “0.003” for “0.05”
as §2

T1 sequence (Q9BUB5 other isoform, or with tags, fused parts or gaps T344D): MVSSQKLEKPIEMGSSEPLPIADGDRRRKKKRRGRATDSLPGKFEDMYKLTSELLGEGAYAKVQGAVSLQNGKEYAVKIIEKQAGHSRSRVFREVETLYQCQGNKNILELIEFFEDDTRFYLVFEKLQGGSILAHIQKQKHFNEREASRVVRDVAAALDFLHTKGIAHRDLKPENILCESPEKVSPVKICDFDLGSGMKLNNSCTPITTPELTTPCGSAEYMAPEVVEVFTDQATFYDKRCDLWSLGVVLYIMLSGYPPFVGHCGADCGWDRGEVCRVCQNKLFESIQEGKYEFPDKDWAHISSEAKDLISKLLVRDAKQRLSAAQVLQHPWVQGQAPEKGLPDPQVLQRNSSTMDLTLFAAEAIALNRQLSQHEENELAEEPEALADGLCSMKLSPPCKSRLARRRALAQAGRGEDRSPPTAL

## CNCC(Oc1ccc2ncc(-c3cc4ccccc4o3)n2n1)c1ccccc1 (single isomer, unassigned; (-)) [Example 29, (-)-2-{[3-(1-Benzofuran-2-yl)imidazo[1,2-b]pyridazin-6-yl]oxy}-N-methyl-2-phenylethanamine]
[1]
  IC50: 98 nM
[2]
  IC50: 124 nM

## COc1cccc2oc(-c3cnc4ccc(OC[C@H]5CNCCO5)nn34)cc12 [Example 2, 3-(4-Methoxy-1-benzofuran-2-yl)-6-[(2R)-morpholin-2-ylmethoxy]imidazo[1,2-b]pyridazine]
[2]
  IC50: 11 nM

## CC(C)(C)CNCCCOc1ccc2ncc(-c3cc4ccccc4o3)n2n1 [Example 4, N-(3-{[3-(1-Benzofuran-2-yl)imidazo[1,2-b]pyridazin-6-yl]oxy}propyl)-2,2-dimethylpropan-1-amine]
[1]
  IC50: 4 nM
[2]
  IC50: 13 nM

## c1ccc2oc(-c3cnc4ccc(OCCNCC5CC5)nn34)cc2c1 [Example 6, 2-{[3-(1-Benzofuran-2-yl)imidazo[1,2-b]pyridazin-6-yl]oxy}-N-(cyclopropylmethyl)ethanamine]
[1]
  IC50: 7 nM
[2]
  IC50: 18 nM

## CC(C)NCCCOc1ccc2ncc(-c3cc4ccccc4o3)n2n1 [Example 9, 3-{[3-(1-Benzofuran-2-yl)imidazo[1,2-b]pyridazin-6-yl]oxy}-N-(propan-2-yl)propan-1-amine]
[1]
  IC50: 7 nM
[2]
  IC50: 20 nM

## CC(C)(C)CNCCOc1ccc2ncc(-c3cc4ccccc4o3)n2n1 [Example 12, N-(2-{[3-(1-Benzofuran-2-yl)imidazo[1,2-b]pyridazin-6-yl]oxy}ethyl)-2,2-dimethylpropan-1-amine]
[1]
  IC50: 11 nM
[2]
  IC50: 25 nM

## c1ccc2oc(-c3cnc4ccc(OCC5CNC5)nn34)cc2c1 [Example 14, 6-(Azetidin-3-ylmethoxy)-3-(1-benzofuran-2-yl)imidazo[1,2-b]pyridazine]
[2]
  IC50: 27 nM

## c1ccc2oc(-c3cnc4ccc(OCC[C@@H]5CCCN5)nn34)cc2c1 [Example 15, 3-(1-Benzofuran-2-yl)-6-{2-[(2S)-pyrrolidin-2-yl]ethoxy}imidazo[1,2-b]pyridazine]
[1]
  IC50: 12 nM
[2]
  IC50: 30 nM

## c1ccc2oc(-c3cnc4ccc(OCCNC5CC5)nn34)cc2c1 [Example 17, N-(2-{[3-(1-Benzofuran-2-yl)imidazo[1,2-b]pyridazin-6-yl]oxy}ethyl)cyclopropanamine]
[1]
  IC50: 8 nM
[2]
  IC50: 36 nM

## CC(C)(C)NCCOc1ccc2ncc(-c3cc4ccccc4o3)n2n1 [Example 18, N-(2-{[3-(1-Benzofuran-2-yl)imidazo[1,2-b]pyridazin-6-yl]oxy}ethyl)-2-methylpropan-2-amine]
[1]
  IC50: 24 nM
[2]
  IC50: 37 nM

## Clc1ccc2oc(-c3cnc4ccc(OC[C@H]5CNCCO5)nn34)cc2c1 [Example 20, 3-(5-Chloro-1-benzofuran-2-yl)-6-[(2R)-morpholin-2-ylmethoxy]imidazo[1,2-b]pyridazine]
[2]
  IC50: 41 nM

## CNC(C)COc1ccc2ncc(-c3cc4ccccc4o3)n2n1 (stereo not shown) [Example 24, 1-{[3-(1-Benzofuran-2-yl)imidazo[1,2-b]pyridazin-6-yl]oxy}-N-methylpropan-2-amine]
[2]
  IC50: 55 nM

## Clc1ccc2oc(-c3cnc4ccc(OCC[C@@H]5CCCN5)nn34)cc2c1 [Example 25, 3-(5-Chloro-1-benzofuran-2-yl)-6-{2-[(2S)-pyrrolidin-2-yl]ethoxy}imidazo[1,2-b]pyridazine]
[1]
  IC50: 39 nM
[2]
  IC50: 91 nM

## CNCC(C)Oc1ccc2ncc(-c3cc4ccccc4o3)n2n1 (stereo not shown) [Example 26, 2-{[3-(1-Benzofuran-2-yl)imidazo[1,2-b]pyridazin-6-yl]oxy}-N-methylpropan-1-amine]
[2]
  IC50: 93 nM

## CC(C)NCC(Oc1ccc2ncc(-c3cc4ccccc4o3)n2n1)c1ccccc1 (stereo not shown) [Example 27, Formic acid-N-(2-{[3-(1-benzofuran-2-yl)imidazo[1,2-b]pyridazin-6-yl]oxy}-2-phenylethyl)propan-2-amine (1:1)]
[1]
  IC50: 36 nM
[2]
  IC50: 75 nM

## CC(C)(C)CNCC(Oc1ccc2ncc(-c3cc4ccccc4o3)n2n1)c1ccccc1 (stereo not shown) [Example 30, N-(2-{[3-(1-Benzofuran-2-yl)imidazo[1,2-b]pyridazin-6-yl]oxy}-2-phenylethyl)-2,2-dimethylpropan-1-amine]
[1]
  IC50: 227 nM
[2]
  IC50: 239 nM

## c1ccc2oc(-c3cnc4ccc(O[C@@H]5CCNC5)nn34)cc2c1 [Example 31, 3-(1-Benzofuran-2-yl)-6-[(3R)-pyrrolidin-3-yloxy]imidazo[1,2-b]pyridazine]
[1]
  IC50: 22 nM
[2]
  IC50: 49 nM

## Fc1cccc2oc(-c3cnc4ccc(OC[C@H]5CNCCO5)nn34)cc12 [Example 33, 3-(4-Fluoro-1-benzofuran-2-yl)-6-[(2R)-morpholin-2-ylmethoxy]imidazo[1,2-b]-pyridazine]
[1]
  IC50: 10 nM
[2]
  IC50: 15 nM
